Data reported in PubChem BioAssay (NCI).
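A five-concentration, 48-hour dose response in 96-well plates underlies each endpoint, interpolated linearly between surrounding concentrations. GI50 = concentration required for 50% inhibition of growth. Definition used: TGI = concentration required for complete inhibition of growth.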

Key:
Assay in all cases: DTP human tumour cell line panel, 48 h
HCC-2998 colon = tested on: HCC-2998 colon
HCT-116 colon = tested on: HCT-116 colon
HT29 colon = tested on: HT29 colon
LOX IMVI melanoma = tested on: LOX IMVI melanoma
SF-268 CNS = tested on: SF-268 CNS
SF-539 CNS = tested on: SF-539 CNS
SN12C renal = tested on: SN12C renal
U251 CNS = tested on: U251 CNS
SK-MEL-2 melanoma = tested on: SK-MEL-2 melanoma
SK-OV-3 ovarian = tested on: SK-OV-3 ovarian

| SMILES | GI50 (HCC-2998 colon) [µM] | TGI (HCC-2998 colon) [µM] | GI50 (HCT-116 colon) [µM] | TGI (HCT-116 colon) [µM] | GI50 (HT29 colon) [µM] | TGI (HT29 colon) [µM] | GI50 (LOX IMVI melanoma) [µM] | TGI (LOX IMVI melanoma) [µM] | GI50 (SF-268 CNS) [µM] | TGI (SF-268 CNS) [µM] | GI50 (SF-539 CNS) [µM] | TGI (SF-539 CNS) [µM] | GI50 (SN12C renal) [µM] | TGI (SN12C renal) [µM] | GI50 (U251 CNS) [µM] | TGI (U251 CNS) [µM] | TGI (SK-MEL-2 melanoma) [µM] | TGI (SK-OV-3 ovarian) [µM] | GI50 (SK-OV-3 ovarian) [µM] | GI50 (SK-MEL-2 melanoma) [µM] |
| --- | --- | --- | --- | --- | --- | --- | --- | --- | --- | --- | --- | --- | --- | --- | --- | --- | --- | --- | --- | --- |
| Fc1ccc(-c2nn3c(COc4ccccc4Cl)nnc3s2)cc1Oc1ccccc1 | 28.6 | 77.4 | 23.2 | 66.1 | 44.9 | > 100 | 22.3 | 51.9 | 44.8 | > 100 | 32.2 | 92.1 | 20.8 | 56.6 | 18.4 | 41.2 | – | – | – | – |
| O=C1C2=C(c3ccccc31)C(c1ccccc1Cl)NC(=S)N2 (stereo unspecified) | – | > 100 | – | > 100 | – | > 100 | – | – | – | > 100 | – | > 100 | – | > 100 | – | > 100 | > 100 | > 100 | – | – |
| CC[C@@]1(O)C(=O)OCc2c1cc1n(c2=O)Cc2cc3c(OC)cccc3nc2-1 | – | – | – | > 100 | – | > 43.7 | 0.00444 | 1.14 | 0.0035 | 1.01 | 0.00654 | 0.224 | 0.00326 | 3.4 | 0.00858 | – | 2.6 | 4.41 | 0.00955 | – |
| CCOC(=O)c1c2c(n(Cc3ccccc3)c1C)-c1nc[nH]c1C(=O)C2=O | – | – | 16 | 30.4 | 28.9 | 76.4 | 14.9 | 28.1 | 17.1 | 31.2 | 17.7 | 31.9 | 16.4 | 30 | 14.7 | 27.8 | 32.2 | 33.6 | 19.5 | 17.7 |
| c1ccc2c(CNCCCN3CCN(CCCNCc4cccc5ccccc45)CC3)cccc2c1 | – | – | – | 2.83 | – | 3.2 | – | 2.67 | – | 6.11 | – | 3.01 | – | 13.5 | – | 3.16 | 3.02 | 5.22 | – | – |
| COc1ccc(C(=O)O[C@@H]2CCN3CC[C@H](C)[C@H]23)cc1 | – | – | – | > 100 | – | > 100 | – | > 100 | – | > 100 | – | > 100 | – | > 100 | – | > 100 | > 100 | > 100 | – | – |
| Cc1cn2c(/C=N/NC3=NCCN3)c(-c3ccc(Cl)c([N+](=O)[O-])c3)nc2s1 | 2.12 | > 50 | 0.949 | 1.72 | – | – | 0.871 | 1.6 | – | – | 0.962 | 1.85 | 0.942 | 1.96 | 0.947 | 1.75 | 1.81 | 3.68 | 1.53 | 0.645 |
| C=CCC1=C2CCCCC2CCC1=O (stereo unspecified) | – | – | – | > 100 | – | – | – | > 100 | – | > 100 | – | > 100 | – | > 100 | – | > 100 | > 100 | > 100 | – | – |
| CN1C[C@@H]2CC(=O)CC[C@@H]2C[C@H]1C#N | – | > 100 | – | > 100 | – | > 100 | – | > 100 | – | > 100 | – | – | – | > 100 | – | – | > 100 | > 100 | – | – |
| O=C(O)c1ccc(NCn2nc(-c3ccccc3O)oc2=S)cc1O | > 100 | > 100 | 44.9 | > 100 | > 100 | > 100 | 25.4 | > 100 | > 100 | > 100 | – | – | 8.85 | 60.1 | 78.1 | > 100 | > 100 | – | – | 46.8 |
| CN(CC(=O)O)S(=O)(=O)c1ccc(Cl)cc1 | – | > 100 | – | – | – | > 100 | – | > 100 | – | > 100 | – | > 100 | – | > 100 | – | > 100 | > 100 | > 100 | – | – |
| O=C([CH-]C(=O)c1ccccc1)c1ccccc1.O=C([CH-]C(=O)c1ccccc1)c1ccccc1.[CH2-]CCC.[CH2-]CCC.[Sn+4] | 0.519 | 1.92 | 0.917 | 2.28 | – | – | 0.405 | 1.59 | 0.458 | 1.86 | 0.587 | 1.94 | 0.509 | 1.75 | 0.45 | 1.56 | 0.883 | – | – | 0.223 |
| S=C1NC(c2ccccc2)=NC(Cc2ccccc2)(c2ccccc2)N1c1ccccc1 (stereo unspecified) | – | > 100 | – | > 100 | – | > 100 | – | > 100 | – | > 100 | – | > 100 | – | > 100 | – | – | – | – | – | – |
| CC(=O)NS(=O)(=O)c1ccc(-n2nc(-c3ccccc3)cc2-c2cc(O)ccc2O)cc1 | – | – | 27.2 | > 100 | > 100 | > 100 | > 100 | > 100 | > 100 | > 100 | – | – | > 100 | > 100 | 61.6 | > 100 | > 100 | – | – | > 100 |
| ClCCN(CCCl)c1ccc(OCc2ccccc2)cc1 | – | – | 6.81 | 26.9 | 13.4 | 49.8 | 3.13 | 17.4 | 2.07 | 22.5 | 2.03 | 7.44 | 2.76 | 58.6 | 2.1 | 18.2 | 35.4 | 61.4 | 7.85 | 13.3 |
| Cc1cc2c(=O)cc(-c3ccc(Cl)c(Cl)c3)oc2c(C(=O)O)c1C | – | – | – | > 100 | – | > 100 | – | > 100 | – | > 100 | – | > 100 | – | > 100 | – | > 100 | > 100 | > 100 | – | – |
| Nc1nc(N)c2cc(Sc3ccc(Cl)cc3)ccc2n1 | 1.08 | 2.43 | 0.327 | 1.39 | 0.516 | 2.4 | 0.35 | 4.07 | 0.898 | 18 | 3.1 | 22.3 | 2.91 | 17.9 | 0.526 | 1.99 | 5.53 | – | – | 2.23 |
| CCOc1ccc(N=C2NC(=O)C(CC(=O)Nc3ccc(Cl)cc3Cl)S2)cc1 (stereo unspecified) | – | > 100 | – | – | – | > 100 | – | > 100 | – | > 100 | – | > 100 | – | > 100 | – | > 100 | > 100 | > 100 | – | – |
| Cc1ccccc1C(C#N)/C(=N/NC(N)=S)C(=O)Nc1c(C)cccc1C (stereo unspecified) | – | > 100 | – | > 100 | – | > 100 | – | > 100 | – | > 100 | – | – | – | > 100 | – | > 100 | > 100 | – | – | – |
